Experimental data: patent publication US11197904B2, “Pharmaceutical compositions for preventions and managements of dementia, infectious diseases, cancers, periodontitis, dental caries, diabetes, obesity, osteoporosis and chronic pain and methods thereof” (Chung Shan Medical University, priority 2018, dated 2021)
pIC50: −log10 of the molar value. ≈ marks a conversion by molar mass, not a printed value. Like-named read-outs stand apart in the source and are kept apart here. Marks after values point to notes of the source that are not given here.

Columns and labels:
[1] = tested on: Lactobacillus reuteri (L.r.); test: Proliferation of the probiotic Lactobacillus reuteri (OD600); format: cell-based
[2] = tested on: Porphyromonas gingivalis (P.g.); test: microbe, parasite or virus in culture; settings: read-out: IC50, 50% inhibition on bacterial proliferation, P. g.
[3] = tested on: Streptococcus mutans (S.m., UA159); test: microbe, parasite or virus in culture; settings: read-out: IC50, 50% inhibition on bacterial proliferation, UA159
[4] = tested on: Pseudomonas aeruginosa (P.a.); test: microbe, parasite or virus in culture; settings: read-out: IC50, 50% inhibition on bacterial proliferation, P. a.
[5] = tested on: Staphylococcus aureus (S.a); test: microbe, parasite or virus in culture; settings: read-out: IC50, 50% inhibition on bacterial proliferation, S. a.
[6] = tested on: Porphyromonas gingivalis (P.g.); settings: for IC50, 50% inhibition on bacterial proliferation, P. g.: single agent
[7] = tested on: Streptococcus mutans (S.m., UA159); settings: for IC50, 50% inhibition on bacterial proliferation, UA159: single agent
[8] = tested on: Pseudomonas aeruginosa (P.a.); settings: for pIC50: read-out: IC50, P. a., metals alone; for IC50, 50% inhibition on bacterial proliferation, P. a.: single agent
[9] = tested on: Staphylococcus aureus (S.a); settings: for pIC50: read-out: IC50, S. a., metals alone; for IC50, 50% inhibition on bacterial proliferation, S. a.: single agent
[10] = 3 to 10 times higher IC50, Table 2
[11] = read-out: IC50, P. g., metals alone
[12] = read-out: IC50, UA159, metals alone

For `CN(C)CCCN1c2ccccc2Sc2ccc(Cl)cc21` [Chlorpromazine], the “Inhibition on proliferation of Lactobacillus reuteri” value (“Inhibition on proliferation” below) [1, 10] was “CPZ, Chlorpromazine*”, the IC50 [2] was 5 µg/mL (≈ 15.7 µM) and the IC50 [3] was 7 µg/mL (≈ 22 µM). The IC50 [4] was 149 µg/mL (≈ 467 µM) and the IC50 [5] was 12 µg/mL (≈ 37.6 µM).

For `CN(C)C(=N)N=C(N)N` [Metformin], the “Inhibition on proliferation” value [1, 10] was “MF, Metformin*”, the IC50 [2] was 639 µg/mL (≈ 4950 µM) and the IC50 [3] was > 1000 µg/mL. For the same compound, the IC50 [4] was > 1000 µg/mL and the IC50 [5] was > 1000 µg/mL.

`CC12CC3CC(C)(C1)CC(N)(C3)C2` [Memantine] gave an IC50 [2] of 59 µg/mL (≈ 329 µM), an IC50 [3] of 386 µg/mL (≈ 2150 µM) and an IC50 [4] of 321 µg/mL (≈ 1790 µM). For the same compound, the IC50 [5] was 435 µg/mL (≈ 2430 µM).

For `[Cl][Mn][Cl]` [MnCl2], the “Inhibition on proliferation” value ([1]; 3 to 10 times higher than the listed IC50, Table 1) was “MnCl2*”, the pIC50 [6, 11] was 3.00 and the pIC50 [7, 12] was 2.84. For the same compound, the pIC50 [8] was < 2.70 and the pIC50 [9] was 2.56.

For `O=c1c(O)c(-c2ccc(O)c(O)c2)oc2cc(O)cc(O)c12` [Quercetin], the IC50 [2] was > 100 µg/mL, the IC50 [3] was 46 µg/mL (≈ 152 µM) and the IC50 [4] was > 100 µg/mL. For the same compound, the IC50 [5] was > 100 µg/mL.

Work on `[Cl][Cu][Cl]` [CuCl2] yielded a pIC50 [6, 11] of 3.17, a pIC50 [7, 12] of 3.35 and a pIC50 [8] of 2.77. The pIC50 [9] was < 2.70.

With `NNC(=O)c1ccncc1` [Isoniazid] the IC50 [2] was > 300 µg/mL, the IC50 [3] was > 300 µg/mL and the IC50 [4] was > 300 µg/mL. The IC50 [5] was > 300 µg/mL.

In the case of `CO[C@H]1/C=C/O[C@@]2(C)Oc3c(C)c(O)c4c(O)c(c(/C=N/N5CCN(C)CC5)c(O)c4c3C2=O)NC(=O)/C(C)=C\C=C\[C@H](C)[C@H](O)[C@@H](C)[C@@H](O)[C@@H](C)[C@H](OC(C)=O)[C@@H]1C` [Rifampin], the IC50 [2] was 0.45 µg/mL (≈ 0.547 µM), the IC50 [3] was 0.013 µg/mL (≈ 0.0158 µM) and the IC50 [4] was 26 µg/mL (≈ 31.6 µM). For the same compound, the IC50 [5] was 0.013 µg/mL (≈ 0.0158 µM).

For Lysozyme, the “IC50, 50% inhibition on bacterial proliferation, P. g.” value (shortened to “IC50, 50% inhibition … P. g.”) [6] was 21 µg/mL, the “IC50, 50% inhibition on bacterial proliferation, UA159” value (from here on “IC50, 50% inhibition … UA159”) [7] was >100 µg/mL and the “IC50, 50% inhibition on bacterial proliferation, P. a.” value (“IC50, 50% inhibition … P. a.” for short) [8] was >100 µg/mL. For the same compound, the “IC50, 50% inhibition on bacterial proliferation, S. a.” value (“IC50, 50% inhibition … S. a.” for short) [9] was >100 µg/mL.

With `N.N.[Cl][Pt][Cl]` [Pt] the pIC50 ([6]; read-out: IC50 of single drug, Table 14, P. g., drug alone) was 4.16 and the pIC50 ([7]; read-out: IC50 of single drug, Table 14, UA159, drug alone) was < 4.00.

For `[H]/N=C(/N)N[C@H]1[C@H](O)[C@@H](O)[C@H](O[C@@H]2O[C@@H](C)[C@](O)(C=O)[C@H]2O[C@@H]2O[C@@H](CO)[C@H](O)[C@@H](O)[C@@H]2NC)[C@@H](N/C(N)=N\[H])[C@@H]1O` [Streptomycin], the IC50 [2] was 9 µg/mL (≈ 15.5 µM), the IC50 [3] was 21 µg/mL (≈ 36.1 µM) and the IC50 [4] was 5 µg/mL (≈ 8.6 µM). For the same compound, the IC50 [5] was 0.2 µg/mL (≈ 0.344 µM).

In the case of `[Na+].[Na+].[Na+].[O]=[V]([O-])([O-])[O-]` [Na3VO4], the pIC50 [6, 11] was 3.66, the pIC50 [7, 12] was 3.06 and the pIC50 [8] was < 2.70. For the same compound, the pIC50 [9] was < 2.70.

For `COc1ccc2cc3[n+](cc2c1OC)CCc1cc2c(cc1-3)OCO2` [Berberine], the IC50 [2] was > 100 µg/mL, the IC50 [3] was 25 µg/mL and the IC50 [4] was > 100 µg/mL. The IC50 [5] was > 100 µg/mL.

In the case of `CCCCCCc1ccc(O)cc1O` [4-Hexyl-Resorcinol], the IC50 [2] was 20 µg/mL (≈ 103 µM), the IC50 [3] was 15 µg/mL (≈ 77.2 µM) and the IC50 [4] was > 100 µg/mL. For the same compound, the IC50 [5] was 32 µg/mL (≈ 165 µM).

polyarginine was tested, and the “IC50, 50% inhibition … P. g.” value [6] was 25 µg/mL, the “IC50, 50% inhibition … UA159” value [7] was >100 µg/mL and the “IC50, 50% inhibition … P. a.” value [8] was >100 µg/mL. The “IC50, 50% inhibition … S. a.” value [9] was >100 µg/mL.

protamine was tested, and the “IC50, 50% inhibition … P. g.” value [6] was 31 µg/mL, the “IC50, 50% inhibition … UA159” value [7] was >100 µg/mL and the “IC50, 50% inhibition … P. a.” value [8] was >100 µg/mL. For the same compound, the “IC50, 50% inhibition … S. a.” value [9] was >100 µg/mL.

For `C=C[C@H]1C[N@@]2CC[C@H]1C[C@H]2[C@H](O)c1ccnc2ccc(OC)cc12` [Quinine], the IC50 [2] was 43 µg/mL (≈ 133 µM), the IC50 [3] was > 100 µg/mL and the IC50 [4] was > 100 µg/mL. For the same compound, the IC50 [5] was > 100 µg/mL.

In the case of `CSc1ccc2c(c1)N(CCC1CCCCN1C)c1ccccc1S2` (stereo not shown) [Thioridazine], the “Inhibition on proliferation” value [1, 10] was “TRZ, Thioridazine*”.
